Experimental data published in paper PMC7211037 (Journal of bone and mineral research : the official journal …, 2016).

Tests used:
CaSR [1] = target: T1, CaSR (Homo sapiens, UniProt P41180); settings: patients; cited from earlier work
T1 sequence (P41180 20-536 limits assumed): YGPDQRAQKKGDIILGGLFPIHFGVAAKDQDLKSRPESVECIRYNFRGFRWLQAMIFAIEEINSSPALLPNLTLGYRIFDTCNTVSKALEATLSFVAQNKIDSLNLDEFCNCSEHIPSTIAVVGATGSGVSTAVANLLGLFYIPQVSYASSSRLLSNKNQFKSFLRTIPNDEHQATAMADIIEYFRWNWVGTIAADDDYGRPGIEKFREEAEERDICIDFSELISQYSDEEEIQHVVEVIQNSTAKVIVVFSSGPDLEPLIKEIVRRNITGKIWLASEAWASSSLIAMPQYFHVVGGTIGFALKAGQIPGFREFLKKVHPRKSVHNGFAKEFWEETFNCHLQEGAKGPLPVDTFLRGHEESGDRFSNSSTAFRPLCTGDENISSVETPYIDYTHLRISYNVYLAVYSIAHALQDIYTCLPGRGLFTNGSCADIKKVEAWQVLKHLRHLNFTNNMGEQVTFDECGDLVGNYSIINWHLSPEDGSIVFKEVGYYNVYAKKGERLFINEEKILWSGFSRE

CaSR [2] = target: T1, CaSR; assay: Intracellular calcium mobilization assay in HEK-CaSR cells; type: cell-based; settings: for Maximal response of Ca^2+ (intracellular Ca^2+): normalized to 7.49 mM Ca^2+ + vehicle in pcDNA3.1 cells
CaSR [3] = target: T1, CaSR; assay: cAMP accumulation assay in HEK-CaSR cells; type: cell-based; settings: 3 mM Ca^2+; GPR64ΔNTF-transfected HEK-CaSR cells (Fig. 7C)
[4] = test system: human parathyroid adenoma cells; assay: PTH secretion from freshly isolated parathyroid adenoma cells; type: cell-based; settings: increasing concentrations of Ca^2+, 30 min at 37°C; normalized to vehicle in 0.5 mM Ca^2+; representative of five independent experiments
[5] = full-length GPR64-transfected HEK-CaSR cells, vehicle, mean ± SE

Hill slope of Ca^2+ (intracellular Ca^2+) (CaSR [2]; [5]) | pEC50 of Ca^2+ (intracellular Ca^2+) (CaSR [2]; [5]) | Maximal response of Ca^2+ (intracellular Ca^2+) (CaSR [2]; [5]) | Maximal response of Ca^2+ (intracellular Ca^2+) (CaSR [2]; pcDNA3.1-transfected HEK-CaSR cells, vehicle, mean ± SE) | Structure (SMILES) | Serum Ca^2+ normalization (in words) (CaSR [1]) | Intracellular Ca^2+ levels (in words) (CaSR [2]; vehicle-treated pcDNA3.1-transfected HEK-CaSR cells) | cAMP level with Ca^2+ (in words) (CaSR [3]) | PTH secretion (in words) [4]
– | – | – | – | C[C@@H](NCCCc1cccc(C(F)(F)F)c1)c1cccc2ccccc12 [cinacalcet] | normalize the serum Ca^2+ in a significant percentage of patients | – | – | –
2.915 ± 0.159 | 3.566 ± 0.010 | 101.70 ± 0.762% | 101.5 ± 1.177% | [Ca+2].[Cl-].[Cl-] [Ca^2+, calcium chloride] | – | elevated the intracellular Ca^2+ levels in a concentration-dependent manner | reduced this effect, the cAMP level was still higher than that of cells transfected with empty vector in normocalcemic conditions | suppressed PTH secretion in a dose-dependent manner
